Source: US11787780B2 (CORCEPT THERAPEUTICS INCORPORATED, priority 2020, dated 2023)

Legend:
[1] = tested on: induction of TAT by dexamethasone in HepG2 cells; experiment: Hep G2 TAT assay (inhibition of dexamethasone-induced TAT); type: cell-based, human; details: challenge of 100 nM dexamethasone, IC50 converted to Ki by Cheng and Prusoff equation
[2] = target: glucocorticoid receptor (GR) recombinant ligand binding domain (LBD) (Homo sapiens (Human), UniProt P04150); experiment: GR binding fluorescence polarisation (FP) assay; details: displacement of fluorescently tagged ligand
glucocorticoid receptor (GR) recombinant ligand binding domain (LBD), sequence (P04150 524-758): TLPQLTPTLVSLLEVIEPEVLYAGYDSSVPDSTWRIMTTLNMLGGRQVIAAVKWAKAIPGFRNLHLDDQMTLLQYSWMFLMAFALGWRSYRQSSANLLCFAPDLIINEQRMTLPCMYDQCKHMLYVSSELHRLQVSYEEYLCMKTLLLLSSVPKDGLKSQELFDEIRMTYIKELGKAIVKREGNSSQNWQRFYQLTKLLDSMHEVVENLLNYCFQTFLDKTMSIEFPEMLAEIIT
Method: Binding of test compounds to the glucocorticoid receptor (GR) is determined using a fluorescence polarisation (FP) assay utilising a recombinant ligand binding domain (LBD) of GR. The test compounds are assessed by their ability to displace a fluorescently tagged ligand and detection of the resulting decrease in fluorescence polarisation.

Compound	Ki [1] [µM]	IC50 [2] [µM]
Cc1cc2c(cnn2-c2ccc(=O)n(C)c2)cc1C1(Cc2ccccc2)CCN(S(=O)(=O)c2cncc(F)c2)C1 (centres unmarked) [Example 300, 5-(5-(3-benzyl-1-((5-fluoropyridin-3-yl)sulfonyl)pyrrolidin-3-yl)-6-methyl-1H-indazol-1-yl)-1-methylpyridin-2(1H)-one]	0.036	0.0046
CCCn1cc(S(=O)(=O)N2CCC(CC)(c3cc4cnn(-c5ccc(F)cc5)c4cc3C)C2)cn1 (centres unmarked) [Example 168]	0.067	0.006
CCCn1cc(S(=O)(=O)N2CC3CCN(c4cc5cnn(-c6ccc(F)cc6)c5cc4C)C3C2)cn1 (centres unmarked) [Example 91]	0.336	0.227
Cc1cc2c(cnn2-c2ccc(F)cc2)cc1N1CCN(S(=O)(=O)c2cnn(C(C)C)n2)C2(CC2)C1 [Example 68]	0.03	0.035
CCCn1cc(S(=O)(=O)N2CCN(c3cc4cnn(-c5cccc(C(=O)NC6CCOC6)c5)c4cc3C)CC23CC3)cn1 (centres unmarked) [Example 84]	0.103	0.01
Cc1cc2c(cnn2-c2ccc(F)cc2)cc1C1(Cc2ccc(C(F)(F)F)cc2)CCN(S(=O)(=O)c2cnn(C)c2)C1 (centres unmarked) [Example 178]	0.03	0.197
CCCn1cc(S(=O)(=O)N2CC=C(c3cc4cnn(-c5ccc(F)cc5)c4cc3C(C)C)CC2)cn1 [Example 141]	0.487	4.22
Cc1cc2c(cnn2-c2ccc(F)cc2)cc1C1(Cc2ccccn2)CCN(S(C)(=O)=O)C1 (centres unmarked) [Example 150]	0.169	0.013
Cc1cc2c(cnn2-c2ccc(=O)n(C)c2)cc1C1(Cc2ccccc2)CN(S(=O)(=O)c2cnn(C)n2)CC1C (centres unmarked) [Example 335, 5-(5-(3-benzyl-4-methyl-1-((2-methyl-2H-1,2,3-triazol-4-yl)sulfonyl)pyrrolidin-3-yl)-6-methyl-1H-indazol-1-yl)-1-methylpyridin-2(1H)-one]	0.046	0.011
Cc1cc2c(cnn2-c2cc(Cl)c(=O)n(C)c2)cc1C1(Cc2ccccc2)CCN(S(=O)(=O)c2cnn(C)n2)C1 (centres unmarked) [Example 248, 5-(5-(3-benzyl-1-((2-methyl-2H-1,2,3-triazol-4-yl)sulfonyl)pyrrolidin-3-yl)-6-methyl-1H-indazol-1-yl)-3-chloro-1-methylpyridin-2(1H)-one]	0.26	0.055
Cc1cc2c(cnn2-c2ccc(F)cc2)cc1C1(Cc2ccc(F)cc2)CCN(S(C)(=O)=O)C1 (centres unmarked) [Example 174]	0.028	0.009
CC(=O)N1CCC(Cc2ccc(C(F)(F)F)cc2)(c2cc3cnn(-c4ccc(F)cc4)c3cc2C)C1 (centres unmarked) [Example 194, 1-(3-(1-(4-fluorophenyl)-6-methyl-1H-indazol-5-yl)-3-(4-(trifluoromethyl)benzyl)pyrrolidin-1-yl)ethan-1-one]	0.102	0.109
CC(=O)N1CCC(Cc2ccc(F)cc2)(c2cc3cnn(-c4ccc(F)cc4)c3cc2C)C1 (centres unmarked) [Example 191, 1-(3-(4-fluorobenzyl)-3-(1-(4-fluorophenyl)-6-methyl-1H-indazol-5-yl)pyrrolidin-1-yl)ethan-1-one]	0.061	0.006
Cc1cc2c(cnn2-c2ccc(=O)n(C)c2)cc1C1(Cc2ccccc2)CCN(S(=O)(=O)c2ccc(F)c(F)c2)C1 (centres unmarked) [Example 287, 5-(5-(3-benzyl-1-((3,4-difluorophenyl)sulfonyl)pyrrolidin-3-yl)-6-methyl-1H-indazol-1-yl)-1-methylpyridin-2(1H)-one]	0.025	0.0067
Cc1cc2c(cnn2-c2cnn(C3COC3)c2)cc1C1(Cc2ccccc2)CCN(S(=O)(=O)c2cnn(C)n2)C1 (centres unmarked) [Example 264, 5-(3-benzyl-1-((2-methyl-2H-1,2,3-triazol-4-yl)sulfonyl)pyrrolidin-3-yl)-6-methyl-1-(1-(oxetan-3-yl)-1H-pyrazol-4-yl)-1H-indazole]	0.21	0.026
CCCn1cc(S(=O)(=O)N2C[C@H](C)N(c3ccc4c(cnn4-c4ccc(F)cc4)c3)C[C@@H]2C)cn1 [Example 61]	0.205	0.025
